The source of these data is patent US12258327B2, “5-membered heteroaryl-containing aminopyridine compounds as EGFR inhibitors” (YUHAN CORPORATION, priority 2021, dated 2025).

Like-named read-outs stand apart in the source and are kept apart here. Where only a bound is given, the exact number is not on record here.

One test has as its target EGFR wildtype (WT) (Homo sapiens, UniProt P00533). As to the kind of experiment: Biochemical EGFR kinase assay (Lance Ultra TR-FRET), wildtype. The method, boiled down: (§1)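 Enzyme reactions lasted 1 hour at room temperature with test compounds between 0.003 and 10 μM, followed by 10 mM EDTA quench.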
The target of a further test is EGFR L858R/T790M/C797S (Homo sapiens, UniProt P00533, C797S/L858R/T790M). As to the kind of experiment: Biochemical EGFR kinase assay (Lance Ultra TR-FRET), triple mutant L858R/T790M/C797S. The method, boiled down: as §1
For orientation: TR-FRET usually uses a lanthanide donor and a delayed reading to cut background.

The target of the next test is EGFR L858R/C797S (Homo sapiens, UniProt P00533, C797S/L858R). As to the kind of experiment: Biochemical EGFR kinase assay (Lance Ultra TR-FRET), double mutant L858R/C797S. The method, boiled down:
as §1

The next test concerns the target EGFR del19/T790M/C797S (Homo sapiens, UniProt P00533, C797S/DEL746-750/T790M). Kind of test: Biochemical EGFR kinase assay (Lance Ultra TR-FRET), triple mutant del19/T790M/C797S. The method, boiled down: as §1
Another test concerns the target EGFR del19/C797S (Homo sapiens, UniProt P00533, C797S/DEL746-750). Kind of test: Biochemical EGFR kinase assay (Lance Ultra TR-FRET), double mutant del19/C797S. The method, boiled down:
as §1

[1] abbreviates: IC50 WT (nM) 100 μM ATP, 100 μM ATP.
The mark [2] stands for this setting: IC50 L858R/T790M/C797S (nM) 100 μM ATP, 100 μM ATP.
Where [3] appears, read: IC50 L858R/C797S (nM) 100 μM ATP, 100 μM ATP.
[4] abbreviates: IC50 del19/T790M/C797S (nM) 100 μM ATP, 100 μM ATP.
Where [5] appears, read: IC50 del19/C797S (nM) 100 μM ATP, 100 μM ATP.
Setting [6] is: Km ATP, read-out: IC50 WT (nM) Km ATP.
Setting [7] is: Km ATP, read-out: IC50 L858R/T790M/C797S (nM) Km ATP.
[8] abbreviates: Km ATP, read-out: IC50 L858R/C797S (nM) Km ATP.
[9] abbreviates: Km ATP, read-out: IC50 del19/T790M/C797S (nM) Km ATP.
The mark [10] stands for this setting: Km ATP, read-out: IC50 del19/C797S (nM) Km ATP.

Chain of EGFR wildtype (WT) (P00533 25-1210): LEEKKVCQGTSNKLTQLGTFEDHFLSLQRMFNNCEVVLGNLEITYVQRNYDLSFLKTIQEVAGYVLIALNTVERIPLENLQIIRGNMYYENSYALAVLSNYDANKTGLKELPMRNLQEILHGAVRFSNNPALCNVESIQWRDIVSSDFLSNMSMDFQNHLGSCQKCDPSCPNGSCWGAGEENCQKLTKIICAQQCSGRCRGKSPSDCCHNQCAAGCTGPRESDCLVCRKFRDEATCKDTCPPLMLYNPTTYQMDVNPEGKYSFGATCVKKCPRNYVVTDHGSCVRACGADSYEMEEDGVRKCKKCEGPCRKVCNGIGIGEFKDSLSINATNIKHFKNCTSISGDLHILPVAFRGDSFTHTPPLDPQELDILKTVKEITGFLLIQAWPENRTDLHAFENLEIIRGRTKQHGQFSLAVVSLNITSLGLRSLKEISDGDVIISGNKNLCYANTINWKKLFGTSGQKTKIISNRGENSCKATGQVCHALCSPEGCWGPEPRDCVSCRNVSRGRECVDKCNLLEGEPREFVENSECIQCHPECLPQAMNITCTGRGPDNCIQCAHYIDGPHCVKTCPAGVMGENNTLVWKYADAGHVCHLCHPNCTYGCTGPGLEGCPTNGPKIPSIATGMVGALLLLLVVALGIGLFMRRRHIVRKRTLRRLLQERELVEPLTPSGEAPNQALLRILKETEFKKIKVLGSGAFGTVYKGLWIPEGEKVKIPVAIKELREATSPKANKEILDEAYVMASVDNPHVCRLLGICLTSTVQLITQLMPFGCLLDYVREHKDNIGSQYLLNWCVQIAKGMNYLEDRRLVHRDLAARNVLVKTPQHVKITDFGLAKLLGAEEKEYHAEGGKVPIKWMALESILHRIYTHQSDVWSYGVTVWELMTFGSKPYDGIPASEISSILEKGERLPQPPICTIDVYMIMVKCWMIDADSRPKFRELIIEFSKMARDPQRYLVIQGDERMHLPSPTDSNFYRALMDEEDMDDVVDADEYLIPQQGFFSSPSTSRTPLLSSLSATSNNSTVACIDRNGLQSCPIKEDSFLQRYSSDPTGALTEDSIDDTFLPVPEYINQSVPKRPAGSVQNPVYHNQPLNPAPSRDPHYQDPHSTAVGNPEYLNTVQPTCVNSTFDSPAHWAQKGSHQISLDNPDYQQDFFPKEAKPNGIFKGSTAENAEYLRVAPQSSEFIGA
Chain of EGFR del19/C797S (P00533 with tags, fused parts or gaps DEL746-750/C797S): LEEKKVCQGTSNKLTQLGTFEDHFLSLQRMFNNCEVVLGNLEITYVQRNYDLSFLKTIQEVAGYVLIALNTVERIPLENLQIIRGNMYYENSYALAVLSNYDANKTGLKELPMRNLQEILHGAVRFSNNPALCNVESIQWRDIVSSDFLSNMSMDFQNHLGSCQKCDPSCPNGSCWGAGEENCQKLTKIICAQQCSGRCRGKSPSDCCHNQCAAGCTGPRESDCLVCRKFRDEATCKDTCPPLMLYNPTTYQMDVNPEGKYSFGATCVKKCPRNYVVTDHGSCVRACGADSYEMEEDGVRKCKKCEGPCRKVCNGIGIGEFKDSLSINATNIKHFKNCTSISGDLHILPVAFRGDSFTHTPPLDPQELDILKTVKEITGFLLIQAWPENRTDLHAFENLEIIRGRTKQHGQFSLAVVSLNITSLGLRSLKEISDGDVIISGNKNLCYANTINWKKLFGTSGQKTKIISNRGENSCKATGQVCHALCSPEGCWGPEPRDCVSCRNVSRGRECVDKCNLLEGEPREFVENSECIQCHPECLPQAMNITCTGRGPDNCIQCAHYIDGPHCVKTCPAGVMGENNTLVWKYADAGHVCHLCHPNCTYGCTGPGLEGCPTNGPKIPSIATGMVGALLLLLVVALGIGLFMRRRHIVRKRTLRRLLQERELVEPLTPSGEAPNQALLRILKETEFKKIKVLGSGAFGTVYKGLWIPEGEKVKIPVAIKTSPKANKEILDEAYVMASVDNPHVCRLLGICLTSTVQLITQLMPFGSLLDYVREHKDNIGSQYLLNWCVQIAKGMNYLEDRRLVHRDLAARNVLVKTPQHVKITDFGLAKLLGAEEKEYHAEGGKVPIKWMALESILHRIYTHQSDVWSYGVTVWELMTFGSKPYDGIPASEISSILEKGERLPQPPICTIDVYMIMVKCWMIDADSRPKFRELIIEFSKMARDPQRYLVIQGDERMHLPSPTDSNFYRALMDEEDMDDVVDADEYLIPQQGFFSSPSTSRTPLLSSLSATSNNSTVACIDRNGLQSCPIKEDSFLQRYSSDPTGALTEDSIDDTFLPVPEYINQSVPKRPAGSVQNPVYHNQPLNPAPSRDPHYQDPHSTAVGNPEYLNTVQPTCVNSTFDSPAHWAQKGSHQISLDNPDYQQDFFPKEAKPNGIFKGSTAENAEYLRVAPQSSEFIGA
Chain of EGFR L858R/C797S (P00533 25-1210 C797S/L858R): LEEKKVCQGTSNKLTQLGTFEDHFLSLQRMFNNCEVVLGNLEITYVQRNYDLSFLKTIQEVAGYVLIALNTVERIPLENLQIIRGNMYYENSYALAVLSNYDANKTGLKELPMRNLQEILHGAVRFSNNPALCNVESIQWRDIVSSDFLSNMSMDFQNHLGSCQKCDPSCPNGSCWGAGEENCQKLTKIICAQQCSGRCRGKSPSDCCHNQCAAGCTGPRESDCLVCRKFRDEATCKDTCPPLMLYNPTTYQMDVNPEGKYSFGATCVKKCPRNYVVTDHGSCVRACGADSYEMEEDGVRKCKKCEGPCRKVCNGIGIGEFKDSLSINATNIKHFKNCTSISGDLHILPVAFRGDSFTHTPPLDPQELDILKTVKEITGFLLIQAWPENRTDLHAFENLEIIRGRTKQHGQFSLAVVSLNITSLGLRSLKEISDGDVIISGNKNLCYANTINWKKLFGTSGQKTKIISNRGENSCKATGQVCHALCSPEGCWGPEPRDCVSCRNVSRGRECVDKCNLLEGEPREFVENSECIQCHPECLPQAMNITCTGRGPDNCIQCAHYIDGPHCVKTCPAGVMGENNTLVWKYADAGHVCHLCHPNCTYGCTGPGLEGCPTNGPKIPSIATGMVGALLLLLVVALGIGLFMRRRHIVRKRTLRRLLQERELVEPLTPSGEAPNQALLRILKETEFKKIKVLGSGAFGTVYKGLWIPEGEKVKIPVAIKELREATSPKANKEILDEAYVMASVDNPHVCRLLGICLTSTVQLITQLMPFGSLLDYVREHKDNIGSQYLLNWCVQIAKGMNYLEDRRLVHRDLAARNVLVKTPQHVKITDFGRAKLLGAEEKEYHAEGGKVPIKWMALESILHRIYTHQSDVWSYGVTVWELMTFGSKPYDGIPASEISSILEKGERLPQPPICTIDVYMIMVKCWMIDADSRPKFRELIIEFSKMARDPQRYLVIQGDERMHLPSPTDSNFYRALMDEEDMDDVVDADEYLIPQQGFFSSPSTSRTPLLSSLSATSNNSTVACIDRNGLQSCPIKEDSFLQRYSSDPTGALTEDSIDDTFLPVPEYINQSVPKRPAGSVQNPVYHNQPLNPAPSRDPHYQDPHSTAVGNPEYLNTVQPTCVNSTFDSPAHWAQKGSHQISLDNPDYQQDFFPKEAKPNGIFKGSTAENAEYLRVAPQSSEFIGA
Chain of EGFR del19/T790M/C797S (P00533 with tags, fused parts or gaps DEL746-750/T790M/C797S): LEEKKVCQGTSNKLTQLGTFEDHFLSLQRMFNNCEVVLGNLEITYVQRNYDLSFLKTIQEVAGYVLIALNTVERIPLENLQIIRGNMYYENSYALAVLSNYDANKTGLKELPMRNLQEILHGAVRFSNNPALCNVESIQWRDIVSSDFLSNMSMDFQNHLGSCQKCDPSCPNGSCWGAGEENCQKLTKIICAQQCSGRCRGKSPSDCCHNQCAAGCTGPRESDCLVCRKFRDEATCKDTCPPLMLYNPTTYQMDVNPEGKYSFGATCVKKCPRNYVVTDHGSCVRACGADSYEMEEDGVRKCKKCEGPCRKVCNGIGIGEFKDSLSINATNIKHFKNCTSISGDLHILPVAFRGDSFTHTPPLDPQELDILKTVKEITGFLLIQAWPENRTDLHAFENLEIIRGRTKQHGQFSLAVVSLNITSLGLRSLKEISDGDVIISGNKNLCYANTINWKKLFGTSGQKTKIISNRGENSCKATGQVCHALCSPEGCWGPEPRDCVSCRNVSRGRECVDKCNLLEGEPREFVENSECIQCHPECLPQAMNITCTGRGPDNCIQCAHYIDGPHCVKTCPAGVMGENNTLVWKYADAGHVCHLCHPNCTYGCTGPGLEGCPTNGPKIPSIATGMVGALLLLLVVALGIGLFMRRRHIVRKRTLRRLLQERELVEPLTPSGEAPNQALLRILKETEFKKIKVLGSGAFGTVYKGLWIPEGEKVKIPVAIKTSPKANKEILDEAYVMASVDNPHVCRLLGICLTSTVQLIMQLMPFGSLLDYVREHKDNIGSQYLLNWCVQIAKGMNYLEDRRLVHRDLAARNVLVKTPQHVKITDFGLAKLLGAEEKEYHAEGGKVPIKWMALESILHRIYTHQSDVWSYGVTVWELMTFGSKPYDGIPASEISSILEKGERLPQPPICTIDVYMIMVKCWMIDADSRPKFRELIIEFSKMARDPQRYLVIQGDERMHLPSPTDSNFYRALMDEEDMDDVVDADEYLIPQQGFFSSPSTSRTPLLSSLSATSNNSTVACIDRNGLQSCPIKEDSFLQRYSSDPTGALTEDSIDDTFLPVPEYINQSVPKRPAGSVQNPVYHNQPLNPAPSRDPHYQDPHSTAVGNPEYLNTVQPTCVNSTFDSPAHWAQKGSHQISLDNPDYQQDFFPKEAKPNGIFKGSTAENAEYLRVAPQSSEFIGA

With `Cc1ncc(-c2cnc(Nc3ccnc(-c4cnn(S(=O)(=O)C5CC5)c4)n3)cc2N[C@H]2CC[C@@H](O)CC2)s1` [Example 75, (1s,4s)-4-((2-((2-(1-(Cyclopropylsulfonyl)-1H-pyrazol-4-yl)pyrimidin-4-yl)amino)-5-(2-methylthiazol-5-yl)pyridin-4-yl)amino)cyclohexan-1-ol], the IC50 against EGFR wildtype (WT) (setting [1]) is more than 10000 nM; at EGFR L858R/T790M/C797S (setting [2]), 16.8 nM; against EGFR L858R/C797S (setting [3]), 173 nM; against EGFR del19/T790M/C797S (setting [4]), 1.1 nM; against EGFR del19/C797S (setting [5]), 37.1 nM.
Turning to `O=S(=O)(C1CC1)n1cc(-c2nccc(Nc3cc(NC[C@H]4C[C@@H](O)C4)c(-c4ccn(C(F)F)n4)cn3)n2)cn1` [Example 35, (1s,3s)-3-(((2-((2-(1-(Cyclopropylsulfonyl)-1H-pyrazol-4-yl)pyrimidin-4-yl)amino)-5-(1-(difluoromethyl)-1H-pyrazol-3-yl)pyridin-4-yl)amino)methyl)cyclobutan-1-ol], the IC50 on EGFR wildtype (WT) (setting [1]) was more than 10000 nM; at EGFR wildtype (WT) (setting [6]), 32.9 nM; on EGFR L858R/T790M/C797S (setting [2]), 0.9 nM; at EGFR L858R/T790M/C797S (setting [7]) it was 0.2 nM; against EGFR L858R/C797S (setting [3]), 57.6 nM; at EGFR L858R/C797S (setting [8]), 6.5 nM. Moreover, the IC50 at EGFR del19/T790M/C797S (setting [4]) is 0.3 nM; at EGFR del19/T790M/C797S (setting [9]) it was 0.4 nM; against EGFR del19/C797S (setting [5]), 5.4 nM; at EGFR del19/C797S (setting [10]), 5.2 nM.
Regarding `CC(C)c1cc(-c2cnc(Nc3ccnc(-c4cnn(S(=O)(=O)C5CC5)c4)n3)cc2N[C@H]2CC[C@@](C)(O)CC2)on1` [Example 64, (1s,4s)-4-((2-((2-(1-(Cyclopropylsulfonyl)-1H-pyrazol-4-yl)pyrimidin-4-yl)amino)-5-(3-isopropylisoxazol-5-yl)pyridin-4-yl)amino)-1-methylcyclohexan-1-ol], the IC50 against EGFR wildtype (WT) (setting [1]) is more than 10000 nM; at EGFR wildtype (WT) (setting [6]) it was 42.9 nM; at EGFR L858R/T790M/C797S (setting [7]), 0.5 nM; at EGFR L858R/C797S (setting [3]) it was 21 nM; against EGFR del19/T790M/C797S (setting [4]), 1 nM; on EGFR del19/T790M/C797S (setting [9]) it was 1 nM. Moreover, the figures for the IC50 against EGFR del19/C797S (setting [5]) and on EGFR del19/C797S (setting [10]) were 3.3 nM and 2.7 nM, respectively.
Consider `O=S(=O)(C1CC1)n1cc(-c2nccc(Nc3cc(N[C@H]4CC[C@@H](O)CC4)c(-c4ccn(C(F)F)n4)cn3)n2)cn1` [Example 80, (1s,4s)-4-((2-((2-(1-(Cyclopropylsulfonyl)-1H-pyrazol-4-yl)pyrimidin-4-yl)amino)-5-(1-(difluoromethyl)-1H-pyrazol-3-yl)pyridin-4-yl)amino)cyclohexan-1-ol], for which the IC50 against EGFR wildtype (WT) (setting [1]) was found to be 214 nM; on EGFR L858R/T790M/C797S (setting [2]) it was 0.8 nM; against EGFR L858R/C797S (setting [3]) it was 1.4 nM; against EGFR del19/T790M/C797S (setting [4]), 0.7 nM; on EGFR del19/C797S (setting [5]) it was 1.2 nM.
Regarding `CC1(O)CCC(Nc2cc(Nc3ccnc(N4CC(O)C(F)(F)C4)n3)ncc2-c2ccn(C(F)F)n2)CC1` (stereo not drawn) [Example 349, 1-(4-((5-(1-(Difluoromethyl)-1H-pyrazol-3-yl)-4-(((1s,4s)-4-hydroxy-4-methylcyclohexyl)amino)pyridin-2-yl)amino)pyrimidin-2-yl)-4,4-difluoropyrrolidin-3-ol], the IC50 is more than 10000 nM at EGFR wildtype (WT) (IC50 WT, 100 μM ATP); 189 nM at EGFR wildtype (WT) (Km ATP, read-out: IC50 WT, Km ATP); 2.8 nM on EGFR L858R/T790M/C797S (IC50 L858R/T790M/C797S, 100 μM ATP); 0.3 nM on EGFR L858R/T790M/C797S (Km ATP, read-out: IC50 L858R/T790M/C797S, Km ATP); 304 nM against EGFR L858R/C797S (IC50 L858R/C797S, 100 μM ATP); 77.2 nM at EGFR L858R/C797S (Km ATP, read-out: IC50 L858R/C797S, Km ATP). The IC50 against EGFR del19/T790M/C797S (IC50 del19/T790M/C797S, 100 μM ATP) is 1 nM; on EGFR del19/T790M/C797S (Km ATP, read-out: IC50 del19/T790M/C797S, Km ATP), 2.4 nM; at EGFR del19/C797S (IC50 del19/C797S, 100 μM ATP), 276 nM; on EGFR del19/C797S (Km ATP, read-out: IC50 del19/C797S, Km ATP), 53.7 nM.
Regarding `O=S(=O)(C1CC1)n1cc(-c2nccc(Nc3cc(N[C@H]4CC[C@@H](O)CC4)c(-c4ccco4)cn3)n2)cn1` [Example 83, (1s,4s)-4-((2-((2-(1-(Cyclopropylsulfonyl)-1H-pyrazol-4-yl)pyrimidin-4-yl)amino)-5-(furan-2-yl)pyridin-4-yl)amino)cyclohexan-1-ol], the IC50 was more than 10000 nM at EGFR wildtype (WT) (setting [1]); 8.6 nM at EGFR wildtype (WT) (setting [6]); 0.7 nM against EGFR L858R/T790M/C797S (setting [2]); 0.3 nM on EGFR L858R/T790M/C797S (setting [7]); 18 nM on EGFR L858R/C797S (setting [3]); 0.7 nM on EGFR L858R/C797S (setting [8]). Moreover, the IC50 worked out at 0.6 nM against EGFR del19/T790M/C797S (setting [4]), 0.3 nM at EGFR del19/T790M/C797S (setting [9]), 1.9 nM against EGFR del19/C797S (setting [5]) and 0.8 nM on EGFR del19/C797S (setting [10]).
